Reference: US7056954B2, “Means for the modulation of processes mediated by retinoid receptors and compounds useful therefor” (The Salk Institute for Biological Studies, priority 1991, dated 2006)
Read-outs that look alike come from different tables or passages of the source.

Legend:
RAR-β = target: T1, RAR-β (Homo sapiens, UniProt P10826); experiment: Cotransfection assay in CV-1 cells, RAR-beta; assay type: cell-based
T1 construct: expressed in transfected cells; host or cells: CV-1 (monkey kidney)
T1 sequence (P10826 1-448 isoform P10826-2): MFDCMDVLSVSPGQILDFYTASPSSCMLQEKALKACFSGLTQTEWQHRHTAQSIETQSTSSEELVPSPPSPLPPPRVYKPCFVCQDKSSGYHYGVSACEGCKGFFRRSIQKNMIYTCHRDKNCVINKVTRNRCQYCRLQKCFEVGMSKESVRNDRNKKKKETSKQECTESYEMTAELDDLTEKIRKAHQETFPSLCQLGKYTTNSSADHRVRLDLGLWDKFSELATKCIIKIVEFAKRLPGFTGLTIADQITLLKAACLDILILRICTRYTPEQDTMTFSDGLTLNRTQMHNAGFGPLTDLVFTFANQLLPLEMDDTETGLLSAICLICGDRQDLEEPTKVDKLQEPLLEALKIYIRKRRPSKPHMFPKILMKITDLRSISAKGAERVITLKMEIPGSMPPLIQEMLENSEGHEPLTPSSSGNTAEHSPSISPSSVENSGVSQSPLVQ

RXR-β = target: T2, RXR-β (Mus musculus, UniProt P28704); experiment: Cotransfection assay in CV-1 cells, RXR-beta; assay type: cell-based; details: Table 4; read-out: Potency
T2 construct: expressed in transfected cells; host or cells: CV-1 (monkey kidney)
T2 sequence (P28704 1-520): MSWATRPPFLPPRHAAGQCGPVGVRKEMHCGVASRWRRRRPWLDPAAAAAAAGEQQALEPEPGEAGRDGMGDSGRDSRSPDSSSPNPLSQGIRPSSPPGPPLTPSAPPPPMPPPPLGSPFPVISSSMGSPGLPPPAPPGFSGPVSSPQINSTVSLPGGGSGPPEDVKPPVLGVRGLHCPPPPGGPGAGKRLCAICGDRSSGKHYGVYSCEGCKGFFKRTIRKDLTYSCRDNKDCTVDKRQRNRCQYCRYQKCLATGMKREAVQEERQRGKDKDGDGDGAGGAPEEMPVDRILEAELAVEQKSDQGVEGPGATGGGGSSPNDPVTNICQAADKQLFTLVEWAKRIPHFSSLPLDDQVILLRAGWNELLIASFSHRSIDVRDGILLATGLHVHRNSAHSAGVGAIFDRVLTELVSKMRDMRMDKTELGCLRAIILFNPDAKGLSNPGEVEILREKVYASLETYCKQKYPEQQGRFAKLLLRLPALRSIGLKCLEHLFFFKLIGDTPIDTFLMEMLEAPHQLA

RAR-γ = target: T3, RAR-γ (Homo sapiens, UniProt P13631); experiment: Cotransfection assay in CV-1 cells, RAR-gamma; assay type: cell-based
T3 construct: expressed in transfected cells; host or cells: CV-1 (monkey kidney)
T3 sequence (P13631 1-454): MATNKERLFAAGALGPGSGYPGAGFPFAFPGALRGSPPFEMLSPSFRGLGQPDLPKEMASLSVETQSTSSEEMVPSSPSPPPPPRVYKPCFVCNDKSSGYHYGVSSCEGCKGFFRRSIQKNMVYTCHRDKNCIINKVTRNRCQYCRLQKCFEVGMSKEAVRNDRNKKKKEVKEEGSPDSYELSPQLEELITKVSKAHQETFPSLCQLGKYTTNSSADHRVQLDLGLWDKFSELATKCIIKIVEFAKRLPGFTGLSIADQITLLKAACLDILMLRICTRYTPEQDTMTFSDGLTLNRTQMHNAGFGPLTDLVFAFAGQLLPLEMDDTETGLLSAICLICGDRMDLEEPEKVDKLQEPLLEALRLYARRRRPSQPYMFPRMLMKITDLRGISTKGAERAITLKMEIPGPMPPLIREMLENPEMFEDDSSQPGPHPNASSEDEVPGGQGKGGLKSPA

RXR-α = target: T4, RXR-α (Homo sapiens, UniProt P19793); experiment: Cotransfection assay in CV-1 cells, RXR-alpha; assay type: cell-based; details: Table 4; for EC50: read-out: Potency
T4 construct: expressed in transfected cells; host or cells: CV-1 (monkey kidney)
T4 sequence (P19793 1-462): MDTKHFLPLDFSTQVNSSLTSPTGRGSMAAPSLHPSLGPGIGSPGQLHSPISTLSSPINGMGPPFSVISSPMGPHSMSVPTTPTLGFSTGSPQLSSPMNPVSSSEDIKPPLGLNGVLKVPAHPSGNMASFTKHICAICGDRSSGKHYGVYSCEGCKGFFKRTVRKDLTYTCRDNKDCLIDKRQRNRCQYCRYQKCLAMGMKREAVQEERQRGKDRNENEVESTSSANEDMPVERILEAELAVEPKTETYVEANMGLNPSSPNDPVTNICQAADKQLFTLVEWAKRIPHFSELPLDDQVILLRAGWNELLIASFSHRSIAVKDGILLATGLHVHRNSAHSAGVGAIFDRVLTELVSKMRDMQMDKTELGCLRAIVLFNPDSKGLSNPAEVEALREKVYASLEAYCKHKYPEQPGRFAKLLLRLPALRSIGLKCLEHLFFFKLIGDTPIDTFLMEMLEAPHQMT

RXR-γ = target: T5, RXR-γ (Mus musculus, UniProt P28705); experiment: Cotransfection assay in CV-1 cells, RXR-gamma; assay type: cell-based; details: Table 4; read-out: Potency
T5 construct: expressed in transfected cells; host or cells: CV-1 (monkey kidney)
T5 sequence (P28705 1-463): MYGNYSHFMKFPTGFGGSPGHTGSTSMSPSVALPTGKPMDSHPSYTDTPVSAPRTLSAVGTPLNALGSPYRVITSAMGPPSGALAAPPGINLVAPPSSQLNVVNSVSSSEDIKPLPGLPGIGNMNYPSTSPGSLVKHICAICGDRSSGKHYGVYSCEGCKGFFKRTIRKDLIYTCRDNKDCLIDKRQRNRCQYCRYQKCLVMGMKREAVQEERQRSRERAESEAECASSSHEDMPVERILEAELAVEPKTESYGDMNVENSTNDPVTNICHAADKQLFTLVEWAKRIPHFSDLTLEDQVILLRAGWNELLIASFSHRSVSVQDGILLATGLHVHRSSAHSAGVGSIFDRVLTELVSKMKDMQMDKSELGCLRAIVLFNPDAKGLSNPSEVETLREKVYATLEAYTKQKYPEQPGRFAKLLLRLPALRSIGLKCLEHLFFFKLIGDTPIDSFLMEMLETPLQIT

RAR-α [1] = target: T6, RAR-α (Homo sapiens, UniProt P10276); experiment: Cotransfection assay in CV-1 cells, RAR-alpha; assay type: cell-based; design: expressed in transfected cells; host or cells: CV-1 (monkey kidney); details: for EC50: Table 4
T6 sequence (P10276 1-462): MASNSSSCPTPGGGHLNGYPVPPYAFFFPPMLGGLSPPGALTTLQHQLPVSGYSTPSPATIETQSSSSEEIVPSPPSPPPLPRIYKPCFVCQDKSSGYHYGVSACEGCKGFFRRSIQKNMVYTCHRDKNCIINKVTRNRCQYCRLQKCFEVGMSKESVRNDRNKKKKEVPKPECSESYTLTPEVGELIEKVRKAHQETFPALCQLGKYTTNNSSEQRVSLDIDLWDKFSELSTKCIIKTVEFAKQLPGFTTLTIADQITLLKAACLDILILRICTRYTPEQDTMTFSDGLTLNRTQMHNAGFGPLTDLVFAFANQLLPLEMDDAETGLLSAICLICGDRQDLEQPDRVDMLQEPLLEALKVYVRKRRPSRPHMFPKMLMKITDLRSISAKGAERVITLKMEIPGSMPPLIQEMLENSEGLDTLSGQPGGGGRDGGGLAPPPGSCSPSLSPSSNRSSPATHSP

F9 cells [2] = experiment: F9 cell differentiation, cellular morphology; assay type: cell-based, mouse
Description: Retinoids are known to differentiate mouse teratocarcinoma cells (F9). Differentiation of F9 cells is specifically associated with irreversible changes in morphology and induction of the biochemical marker alkaline phosphatase (ALP) and tissue plasminogen activator (tPA) (Biochem. J. Vol. 274:673–678).

[3] = system: human primary metastatic melanoma cell line c81–46c; experiment: In vitro proliferation of human melanoma cell line c81–46c; assay type: cell-based
[4] = system: murine melanoma cell line Clone M3; experiment: In vitro proliferation of murine melanoma cell line Clone M3
RAR-α [5] = target: T6, RAR-α; experiment: Binding studies, RAR-alpha; design: made in house; host or cells: bacteria (PET-8c vector)
F9 cells [6] = experiment: F9 cell differentiation, induction of alkaline phosphatase; assay type: cell-based, mouse; details: maximal responses similar
F9 cells [7] = experiment: F9 cell differentiation, tissue plasminogen activator activity; assay type: cell-based, mouse; details: concentration of 1 μM
Rhino mouse = experiment: Topical application, horn-filled utriculus size in the Rhino mouse; assay type: in vivo; details: 14 days

CC1=C(/C=C/C(C)=C\C=C\C(C)=C\C(=O)O)C(C)(C)CCC1O (stereo not drawn) [4-hydroxy-9-cis-retinoic acid]
EC50 (RAR-β): 0.16 µM
Efficacy (RAR-β): 71%
EC50 (RXR-β): 0.65 µM
EC50 (RAR-γ): 0.18 µM
Efficacy (RAR-γ): 81%
Efficacy (RXR-α; maximal response relative to retinoic acid at 10^−5 M): 161%
EC50 (RXR-α): 1.7 µM
EC50 (RXR-γ): 1.7 µM
EC50 (RAR-α [1]; Potency): 0.38 µM

CC1=C(/C=C/C(C)=C\C=C\C(C)=C\C(=O)O)C(C)(C)CCC1=O [4-keto-9-cis-retinoic acid]
EC50 (RXR-β): 1.3 µM
EC50 (RXR-α): 0.52 µM
EC50 (RXR-γ): 1.1 µM

CC1=C(/C=C/C(C)=C\C=C\C(C)=C\C(=O)O)C(C)(C)CCC1 [9-cis-retinoic acid]
differentiation of F9 cells, irreversible changes in cellular morphology (F9 cells [2]): induced differentiation of F9 cells into partial endoderm-like cells
% Growth inhibition ([3]; Conc added 0.01 μM): −28%
% Growth inhibition ([3]; Conc added 1 μM): −45%
% Growth inhibition ([4]; Conc added 0.01 μM): −49%
% Growth inhibition ([4]; Conc added 1 μM): −85%
binding to RAR-alpha (RAR-α [5]): high affinity ligand
potency as an activator of RAR-alpha compared with all-trans-retinoic acid (RAR-α [1]; FIG. 3C): equipotent

CC1=C(/C=C/C(=C\C=C\C(C)=C\C(=O)O)c2ccccc2)C(C)(C)CCC1 [9-phenyl-9-cis-retinoic acid]
EC50 (RAR-β; Table 4, read-out: Potency): 0.88 µM
EC50 (RXR-β): 0.044 µM
EC50 (RAR-γ; Table 4, read-out: Potency): 0.25 µM
EC50 (RXR-α): 0.21 µM
EC50 (RXR-γ): 0.29 µM
EC50 (RAR-α [1]; read-out: Potency): > 10 µM

CC1=C(/C=C/C(C)=C/C=C/C(C)=C/C(=O)O)C(C)(C)CCC1 [all-trans-retinoic acid]
times more potent than 9-cis-retinoic acid in inducing ALP (F9 cells [6]): 40 times
differentiation of F9 cells, irreversible changes in cellular morphology (F9 cells [2]): induced differentiation of F9 cells into partial endoderm-like cells
increased cellular activities of tPA (F9 cells [7]): 0.80±0.08
Pilosebaceous structure size (% red′n) (Rhino mouse; 0.01% topical): (−75%)
Pilosebaceous structure size (% red′n) (Rhino mouse; 0.1% topical): (−78%)
Pilosebaceous structure size (Rhino mouse; 0.1% topical, vehicle control 178 μm): 44 μm
